Reference: patent publication US20140213538A1, “LYSOPHOSPHATIDIC ACID RECEPTOR ANTAGONISTS” (InterMune, Inc., priority 2013, published 2014)

Experiments:
Type in all cases: cell-based
LPA/S1P GPCR of interest = target: T1, LPA/S1P GPCR of interest (Homo sapiens, UniProt Q92633); assay: Beta-Arrestin based assay (PathHunter)
T1 construct: host or cells: CHO
Outline: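 EA Parental CHO cells (DiscoverX) were transfected with FuGENE (Roche) using CMV promoter-driven DNA constructs encoding the LPA/S1P GPCR of interest fused to a ProLink tag. Beta-arrestin recruitment in agonist mode was assessed 24-48 hrs later with PathHunter kits. Tests ran in quadruplicate in white 384 well plates, and end point luminescence was fit to a 4 parameter logistic function.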

LPA1 [1] = target: T2, LPA1 (Homo sapiens, UniProt Q92633); assay: LPA1 Migration Assay (Oris); design: host or cells: primary fibroblasts (lung, dermal), HFL-1, 3T3 and CHO cells expressing LPA1R; conditions: read-out: Cell Migration EC50
T2 sequence (Q92633 whole entry): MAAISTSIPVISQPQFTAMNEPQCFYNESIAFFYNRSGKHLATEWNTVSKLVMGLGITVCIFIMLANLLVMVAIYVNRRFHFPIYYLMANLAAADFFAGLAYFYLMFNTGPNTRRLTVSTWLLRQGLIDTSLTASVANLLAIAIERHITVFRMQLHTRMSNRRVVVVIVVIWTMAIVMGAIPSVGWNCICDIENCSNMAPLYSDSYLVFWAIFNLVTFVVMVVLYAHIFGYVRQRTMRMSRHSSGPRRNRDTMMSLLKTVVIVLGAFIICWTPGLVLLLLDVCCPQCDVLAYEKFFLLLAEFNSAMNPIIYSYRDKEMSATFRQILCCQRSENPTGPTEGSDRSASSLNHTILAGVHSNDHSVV
Outline: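 Antagonist inhibition was derived by 4-parameter logistic fitting of migrated-cell counts against compound concentration. Dye-loaded, 12-24 h serum-starved fibroblasts, HFL-1, 3T3 or CHO cells expressing LPA1R moved into an Oris detection zone in response to LPA or serum, then were fixed and counted on a high-content reader.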

LPA1 [2] = target: T2, LPA1; assay: Ca Flux LPA1 assay; design: the full-length cDNA for human LPA1 is obtained by PCR of the reverse transcription reaction; expressed in transfected cells

T1 sequence (Q92633 whole entry): as above

EC50 (LPA/S1P GPCR of interest) [nM] | EC50 (LPA1 [1]) [nM] | IC50 (LPA1 [2]) [nM] | SMILES
< 50 | < 50 | > 500 | Cc1noc(-c2ccc(-c3cc(F)c(Oc4nc5ccccc5cc4C(=O)O)c(F)c3)cc2)c1NC(=O)O[C@H](C)c1ccccc1 [IT481]
> 500 | 50 to 500 | > 500 | Cc1noc(-c2ccc(-c3ccc(S(C)(=O)=O)cc3)cc2)c1NC(=O)O[C@H](C)c1ccccc1 [IT124]
< 50 | > 500 | 50 to 500 | COC(=O)C1(c2cc3sc(C#Cc4cnn(C)c4NC(=O)O[C@H](C)c4ccccc4)cc3s2)CC1 [IT479]
< 50 | 50 to 500 | < 50 | C[C@@H](OC(=O)Nc1c(-c2ccc(-c3ccc(C4(C(=O)O)CC4)c4c3CCC4)cc2)cnn1C)c1ccccc1 [IT112]
< 50 | < 50 | < 50 | Cc1noc(-c2ccc(-c3ccc(Oc4cccnc4C(=O)O)c(F)c3)cc2)c1NC(=O)O[C@H](C)c1ccccc1 [IT424]
< 50 | < 50 | 50 to 500 | Cc1nsc(-c2ccc(-c3cc(F)c(Oc4ncccc4C(=O)O)c(F)c3)cc2)c1NC(=O)O[C@H](C)c1ccccc1 [IT451]
< 50 | < 50 | > 500 | C[C@@H](OC(=O)Nc1c(-c2ccc(-c3ccc(C4(C(=O)O)CC4)cc3)cc2)oc2ccccc12)c1ccccc1 [IT496]
< 50 | < 50 | < 50 | Cc1noc(-c2ccc(-c3ccc(Oc4ncccc4C(=O)O)cc3)cc2)c1NC(=O)O[C@H](C)c1ccccc1 [IT199]
< 50 | 50 to 500 | < 50 | Cc1noc(-c2ccc(-c3ccc(Oc4ccccc4C(=O)O)nc3)cc2)c1NC(=O)O[C@H](C)c1ccccc1 [IT345]
< 50 | 50 to 500 | < 50 | C[C@@H](OC(=O)Nc1c(-c2cc3sc(C#CC4(C(=O)O)CC4)cc3s2)cnn1C)c1ccccc1 [IT126]
< 50 | 50 to 500 | 50 to 500 | Cc1noc(-c2ccc(-c3ccc(C4(C(=O)O)CC(F)(F)C4)cc3)cc2)c1NC(=O)O[C@H](C)c1ccccc1 [IT136]
< 50 | 50 to 500 | > 500 | C[C@@H](OC(=O)Nc1c(-c2cc3sc(-c4ccc(C5(C(=O)O)CC5)cc4)cc3s2)cnn1C)c1ccccc1 [IT119]
50 to 500 | > 500 | < 50 | C[C@@H](OC(=O)Nc1ccncc1C#Cc1cc2sc(C3(C(=O)O)CC3)cc2s1)c1ccccc1 [IT106]
< 50 | < 50 | < 50 | Cc1noc(-c2ccc(-c3cc(F)c(Oc4ncccc4C(=O)O)c(F)c3)cc2)c1NC(=O)O[C@H](C)c1ccccc1 [IT258]
50 to 500 | 50 to 500 | < 50 | C[C@@H](OC(=O)Nc1c(C#Cc2cc(F)c(Oc3ncccc3C(=O)O)c(F)c2)cnn1C)c1ccccc1 [IT303]
< 50 | < 50 | 50 to 500 | CCn1ncc(-c2ccc(-c3cc(F)c(Oc4ncccc4C(=O)O)c(F)c3)cc2)c1NC(=O)O[C@H](C)c1ccccc1 [IT489]
< 50 | 50 to 500 | 50 to 500 | Cc1noc(-c2ccc(-c3ccc(Oc4c(F)cccc4C(=O)O)c(F)c3)cc2)c1NC(=O)O[C@H](C)c1ccccc1 [IT374]
< 50 | < 50 | 50 to 500 | Cc1noc(-c2ccc(-c3ccc(Oc4c(C(=O)O)n[nH]c4C)cc3)cc2)c1NC(=O)O[C@H](C)c1ccccc1 [IT485]
< 50 | 50 to 500 | < 50 | C[C@@H](OC(=O)Nc1c(-c2ccc(-c3ccc(C4(C(=O)O)CC4)s3)cc2)nnn1C)c1ccccc1 [IT236]
< 50 | 50 to 500 | 50 to 500 | Cc1noc(-c2ccc(-c3ccc(OC(F)(F)C(=O)O)cc3)cc2)c1NC(=O)O[C@H](C)c1ccccc1 [IT228]
< 50 | 50 to 500 | 50 to 500 | Cc1noc(-c2ccc(-c3ccc(C(F)(F)C(=O)O)cc3)cc2)c1NC(=O)O[C@H](C)c1ccccc1 [IT123]
< 50 | 50 to 500 | < 50 | Cc1noc(-c2ccc(-c3ccc(Oc4ccncc4C(=O)O)c(F)c3)cc2)c1NC(=O)O[C@H](C)c1ccccc1 [IT423]
< 50 | 50 to 500 | < 50 | C[C@@H](OC(=O)Nc1c(C#Cc2ccc(Oc3ccccc3C(=O)O)cc2)cnn1C)c1ccccc1 [IT301]
< 50 | < 50 | < 50 | Cc1noc(-c2ccc(-c3ccc(OC4(C(=O)O)CC4)cc3)cc2)c1NC(=O)O[C@H](C)c1ccccc1 [IT197]

EC50 (LPA/S1P GPCR of interest) [nM] | EC50 (LPA1 [1]) [nM] | IC50 (LPA1 [2]) [nM] | SMILES
50 to 500 | 50 to 500 | 50 to 500 | C[C@@H](OC(=O)Nc1c(-c2ccc(-c3ccc(C4(C(=O)OC5OC(C(=O)O)C(O)C(O)C5O)CC4)cc3)cc2)cnn1C)c1ccccc1 (stereo partly drawn) [IT105]
< 50 | < 50 | < 50 | Cc1noc(-c2ccc(-c3cc(F)c(Oc4cccnc4C(=O)O)c(F)c3)cc2)c1NC(=O)O[C@H](C)c1ccccc1 [IT435]
< 50 | 50 to 500 | < 50 | Cc1noc(-c2ccc(-c3ccc(Oc4c(C(=O)O)nn(C)c4C)cc3)cc2)c1NC(=O)O[C@H](C)c1ccccc1 [IT484]
50 to 500 | > 500 | 50 to 500 | C[C@@H](OC(=O)Nc1c(-c2ccc(-c3ccc(C4(C(=O)O)CCOCC4)cc3)cc2)cnn1C)c1ccccc1 [IT027]
< 50 | < 50 | 50 to 500 | Cn1ncc(C#Cc2cc3sc(C4(C(=O)O)CC4)cc3s2)c1NC(=O)O[C@@H](c1ccccc1)C(F)(F)F [IT114]
> 500 | > 500 | > 500 | C[C@@H](OC(=O)Nc1sncc1C#Cc1cc2sc(C3(C(=O)O)CC3)cc2s1)c1ccccc1 [IT108]
< 50 | < 50 | > 500 | C[C@@H](OC(=O)Nc1c(-c2cc(F)c(-c3cc4sc(C5(C(=O)O)CC5)cc4s3)cc2F)cnn1C)c1ccccc1 [IT121]
< 50 | 50 to 500 | 50 to 500 | C[C@@H](OC(=O)Nc1c(-c2cc3sc(-c4cc(F)c(C5(C(=O)O)CC5)c(F)c4)cc3s2)nnn1C)c1ccccc1 [IT262]
< 50 | 50 to 500 | 50 to 500 | C[C@@H](OC(=O)Nc1c(-c2cc3sc(-c4ccc(C5(C(=O)O)CC5)cc4F)cc3s2)cnn1C)c1ccccc1 [IT245]
< 50 | < 50 | < 50 | Cc1noc(-c2ccc(-c3cc(F)c(Oc4ccncc4C(=O)O)c(F)c3)cc2)c1NC(=O)O[C@H](C)c1ccccc1 [IT300]
< 50 | < 50 | 50 to 500 | C[C@@H](OC(=O)Nc1c(-c2ccc(-c3cc(F)c(Oc4ncccc4C(=O)O)c(F)c3)cc2)cnn1C)c1ccccc1 [IT308]
< 50 | 50 to 500 | 50 to 500 | C[C@@H](OC(=O)Nc1c(-c2ccc(-c3cc(F)c(Oc4ccncc4C(=O)O)c(F)c3)cc2)cnn1C)c1ccccc1 [IT438]
< 50 | 50 to 500 | < 50 | Cc1nnn(-c2ccc(-c3cc(F)c(Oc4ncccc4C(=O)O)c(F)c3)cc2)c1NC(=O)O[C@H](C)c1ccccc1 [IT307]
< 50 | 50 to 500 | < 50 | Cc1noc(-c2cc3sc(C#CC4(C(=O)O)CC4)cc3s2)c1NC(=O)O[C@H](C)c1ccccc1 [IT117]
< 50 | < 50 | 50 to 500 | Cc1noc(-c2ccc(-c3ccc(Oc4ccccc4C(=O)O)cc3)cc2)c1NC(=O)O[C@H](C)c1ccccc1 [IT155]
< 50 | < 50 | < 50 | Cc1noc(-c2ccc(-c3cc(F)c(C4(C(=O)O)CC4)c(F)c3)cc2)c1NC(=O)O[C@H](C)c1ccccc1 [IT234]
< 50 | < 50 | < 50 | C[C@@H](OC(=O)Nc1c(-c2ccc(-c3ccc(Oc4ccccc4C(=O)O)cc3)cc2)nnn1C)c1ccccc1 [IT309]
< 50 | < 50 | 50 to 500 | C[C@@H](OC(=O)Nc1c(-c2ccc(-c3cc(F)c(Oc4ncccc4C(=O)O)c(F)c3)cc2)cnn1C)c1ccccc1Cl [IT450]
< 50 | 50 to 500 | 50 to 500 | Cc1noc(-c2ccc(-c3ccc(Oc4cccnc4C(=O)O)cc3)cc2)c1NC(=O)O[C@H](C)c1ccccc1 [IT229]
< 50 | < 50 | < 50 | Cc1noc(-c2ccc(NC(=O)c3coc(C4(C(=O)O)CC4)c3)cc2)c1NC(=O)O[C@H](C)c1ccccc1 [IT224]
< 50 | 50 to 500 | 50 to 500 | Cc1noc(-c2ccc(-c3ccc(Oc4c(F)cccc4C(=O)O)cc3)cc2)c1NC(=O)O[C@H](C)c1ccccc1 [IT375]
< 50 | < 50 | < 50 | Cc1noc(-c2ccc(-c3ccc(Oc4ccncc4C(=O)O)cc3)cc2)c1NC(=O)O[C@H](C)c1ccccc1 [IT227]
< 50 | 50 to 500 | 50 to 500 | Cc1onc(-c2cc(F)c(-c3cc4sc(C5(C(=O)O)CC5)cc4s3)cc2F)c1NC(=O)O[C@H](C)c1ccccc1 [IT255]
